{"source": "patent US9422238B2", "about": "“ICMT inhibitors” (National University of Singapore, priority 2012, dated 2016)", "key": {"[1]": {"test": "Parallel Artificial Membrane Permeability Assay (PAMPA)", "conditions": "for Papp at 16 h: PAMPA, pH 7.4", "method": "Briefly, determinations were carried out on MultiScreen-IP PAMPA assay (donor) plates (MAIPNTR10) and MultiScreen Receiver Plates (MATRNPS50) from Millipore Corporation (USA) with 1% lecithin (L-α-phosphatidylcholine from lyophilized powder of egg yolk, Sigma Aldrich, USA) in dodecane (ReagentPlus®, Sigma Aldrich, USA) as lipid barrier. 5 μL of 1% lecithin in dodecane was dispensed into the wells of the donor plates. […] The mobile phase was Milli-Q water (0.1% formic acid) and acetonitrile (0.1% formic acid), run on gradient.\nPe was obtained from Equation 1:\n[formula] Where VA and VD are the volumes of acceptor (cm^3) and donor (cm^3) wells respectively, A is the area of the surface area of the membrane (0.24 cm^2), t is the permeation time (s); S is the fraction of sample remaining in the donor and acceptor wells after permeation time and is determined from Equation 2, CA and CD are the concentrations (μM) of test/reference compound in acceptor and donor wells respectively.\nThe Pe of each compound was obtained from at least 3 separate experiments using no less than 2 different stock solutions. For each independent determination, triplicates (3 wells) were run for each compound."}, "[2]": {"system": "HepG2 cells", "test": "Western blot of autophagy marker LC3-II", "format": "cell-based, human", "conditions": "HepG2, 24 h and 48 h", "method": "(§1) MDA MB231, PC3 and HepG2 cells were seeded at 65 000 cells/mL per well in […] with DMEM (high glucose, supplemented with 10% FBS, 50 μg/mL penicillin, 50 μg/mL streptomycin) as media. Plates were incubated (24 h, 37° C., 5% CO2) for cells to attach and then treated with test compound (prepared in same media but with 5% FBS) for 24 h or 48 h. Final volume of DMSO per well was kept at 0.05% v/v. After the specified time, the supernatant was removed from the well by pipetting, the cell pellet was trypsinized, and pelleted by centrifugation (150 g, 5 min) and stored in −20° C. Samples were thawed and cells lysed by adding RIPA (radioimmunoprecipitation assay lysis buffer, Thermo Scientific, Rockland, Ill.) (50 μL), kept in ice for 30 min and sonicated for 1 min in an ice bath. Samples were centrifuged (13 000 g, 5 min, 4° C.) to remove cell debris. The supernatant was stored as aliquots at −80° C. and used when required. At the time of use, samples were thawed and protein content determined using the BCA® Protein Assay reagent (Thermo Scientific, Rockland, Ill.). The volume of the lysate was adjusted with deionized water to normalize protein content to 10-20 μg per mL. To this was added Laemmli buffer (4×) and heated to 100° C. for 5 minutes to denature the protein. The samples were resolved by 12% SDS-PAGE gel electrophoresis at 100V for 90 min. The resolved proteins were transferred to polyvinylidene difluoride (PVDF) membranes (Bio-Rad, Singapore) using transfer buffer at 100V for 120 min. Membranes were then treated with 5% blocking buffer (5% non-fat milk and 0.1% Tween-20 in PBS) and probed with the specific antibody (GAPDH, LC3) by incubating the membranes in blocking buffer containing the antibody at 4° C. overnight. After washing the membranes in PBS containing 0.1% Tween 20 (PBST), the membranes were probed with secondary antibodies (horseradish peroxidase anti mouse IgG, Pierce, USA) in blocking buffer at room temperature for 1 h. They were then washed with PBST and developed using an enhanced chemiluminescence procedure (Amersham ECL Advanced Western Blotting Detection Kit, GE, Healthcare, UK). Immunoblots were viewed using the ImageQuant® RT-ECL imager (GE Healthcare) and the image captured with the ImageQuant® TL software. Antibodies were obtained from the following sources: GAPDH (Cell signaling technology, USA), LC3 (Abgent, USA). Test compound was evaluated at 3 concentrations with 2 repeats for each concentration."}, "[3]": {"system": "MDA MB 231 cells", "test": "Western blot of autophagy marker LC3-II", "format": "cell-based, human", "conditions": "MDA MB 231, 24 h and 48 h", "method": "as §1"}, "[4]": {"system": "PC3 cells", "test": "Western blot of autophagy marker LC3-II", "format": "cell-based, human", "conditions": "PC3, 24 h and 48 h", "method": "as §1"}, "[5]": {"test": "In vitro metabolite structure identification", "format": "in vitro ADME", "conditions": "rat liver microsomes, 45 min, LC/MS/MS", "method": "The test compound was incubated with rat liver microsomes for 45 minutes, after which aliquots were analyzed by LC/MS/MS for the presence of metabolites. The test compound was incubated with pooled rat liver microsomes (BD Gentest Corp, Woburn, Mass.) in a mixture (final volume 500 μL) comprising the following: rat liver microsomes (7.5 μL of 20 mg microsomal protein to give final concentration of 0.3 mg microsome protein/mL), test compound (2.5 μL of 1 mM test compound in acetonitrile to give final concentration of […]) and phosphate buffer (440 μL of 0.1 M, pH 7.4, containing 1 mM EDTA). The mixture was preincubated for 5 min at 37° C. in a shaking water bath, after which-reaction was initiated by adding 50 μL of 10 mM NADPH (freshly prepared in phosphate buffer) to give a final concentration of 1 mM NADPH in the mixture. Aliquots of 50 μL were withdrawn immediately on addition of NADPH (time 0) and 45 min later. On removal of the sample, reaction was quenched by addition of chilled methanol (100 μL). The mixture was then centrifuged at 10,000 g to remove the protein and the supernatant was analyzed by LC-MS-MS.\nLiquid chromatography was performed on an Agilent® 1200 series HPLC system interfaced with a QTRAP 3200 triple quadruple mass spectrometer (Applied Biosystems, Foster City, Calif.). […]"}, "[6]": {"system": "HepG2 xenografts", "test": "In vivo activity on xenograft bearing mice", "conditions": "for deaths during the treatment period: 8 mice", "method": "HepG2 cells were grown in DMEM and 10% FBS until near confluence and then harvested after trypsinization. […] The vehicle was ethanol-PEG400-dextrose solution as described in 5.2.1. The animals were monitored daily for changes in their general appearance, weight and tumor volume. Tumor volume was calculated using the formula: […]. Length (L) and width (W) of the tumor were measured with a digital vernier caliper and reported to 2 decimal places. The shorter of the 2 distances was taken as width. The mice were monitored—for 25-days after which they were euthanized with CO2, the tumors removed by dissection and weighed."}}, "note": "“And” between values parts separate entries of the source, which are not always exact repeats. Equal entries are not always repeated. “Also recorded” adds a separate entry of the source.", "data": [{"smiles": "CCCCCCCCn1cc(CN(CC)CC)c2cc(-c3cnc(N)nc3)ccc21", "note": "[Compound 8-12, 5-(3-Diethylaminomethyl-1-octyl-1H-indol-5-yl)-pyrimidin-2-ylamine]", "values": [{"measurement": "Papp at 16 h", "setting": "[1]", "result": 14.2, "unit": "×10⁻⁶ cm/s"}, {"measurement": "PAMPA Pe (×10^−6 cm/s)", "setting": "[1]; pH 7.4, 16 h agitation, 1% lecithin in dodecane", "result": "14.2 ×10^−6 cm/s and 14.2 (±1.4) ×10^−6 cm/s"}, {"measurement": "LC3-II content (immunoblot)", "setting": "[2]", "result": "LC3-II bands were detected in HepG2 cells treated only with 0.5 μM but not 0.25 μM"}, {"measurement": "LC3-II content (immunoblot)", "setting": "[3]", "result": "increased the content of LC3-II"}, {"measurement": "LC3-II content (immunoblot)", "setting": "[4]", "result": "increased the content of LC3-II"}, {"measurement": "metabolites found", "setting": "[5]", "result": "four metabolites were proposed"}, {"measurement": "deaths during the treatment period", "setting": "[6]; 15 mg/kg IP daily, 25 days", "result": "one animal died"}, {"measurement": "deaths during the treatment period", "setting": "[6]; 30 mg/kg IP daily, 25 days", "result": "Three deaths"}, {"measurement": "reduction in relative tumor volume", "setting": "[6]; 15 and 30 mg/kg IP daily, p<0.05 vs control", "result": "Significant reduction in tumor volume was evident from Day 5 onwards for animals receiving 30 mg/kg and Day 7 onwards for animals receiving 15 mg/kg; also recorded: Reduction in tumor volume was significant from Day 5 and Day 7 onwards for animals dosed with 30 mg/kg and 15 mg/kg respectively"}, {"measurement": "weight of excised tumors vs control", "setting": "[6]; after 25 days", "result": "significant weight loss compared to control"}]}, {"smiles": "CCCCCCCCn1c2c(c3cc(-c4cnc(N)nc4)ccc31)CN(C)CC2", "note": "[Compound 305, 8-(2′-amino-pyrimidin-5′-yl)-2-methyl-5-n-octyl-1,2,3,4-tetrahydropyrido[4,3-b]indole]", "values": [{"measurement": "Papp at 16 h", "setting": "[1]", "result": "19.7 ± 0.56", "unit": "×10⁻⁶ cm/s"}]}, {"smiles": "CCCCCCCCn1cc(CC(N)=O)c2cc(-c3cccc(C)c3)ccc21", "note": "[Cysmethynil, 2-[5-(3-methylphenyl)-1-octyl-1H-indolo-3-yl]acetamide, reference compound]", "values": [{"measurement": "LC3-II content (immunoblot)", "setting": "[2]", "result": "LC3II accumulation was evident after 48 hours but not 24 h"}, {"measurement": "LC3-II content (immunoblot)", "setting": "[3]", "result": "LC3-II accumulation was evident in MDA MB 231 cells treated with cysmethynil at 20 and 22.5 μM, but not at 17.5 μM"}, {"measurement": "LC3-II content (immunoblot)", "setting": "[4]", "result": "negligible LC3II were observed"}, {"measurement": "metabolites found", "setting": "[5]", "result": "4 mono-oxygenated/hydroxylated metabolites (A-D)"}, {"measurement": "body weight change", "setting": "[6]; xenograft-bearing mice, 25 days", "result": "Weight loss was observed up to Day 11"}]}]}
